{
  "source": "patent US11767310B2",
  "about": "“Nicotinamide RIPK1 inhibitors” (AbbVie Inc., priority 2021, dated 2023)",
  "experiment_in_all_cases": "Kinase binding screen",
  "details_in_all_cases": "read-out: Percent Control at 100 nM Compound Concentration",
  "key": {"DAPK1": {"target": "DAPK1 (Homo sapiens (Human), UniProt P53355)"}, "[1]": {"target": "RSK2(Kin.Dom.1-N-terminal) (Homo sapiens (Human), UniProt P51812)", "sequence (P51812 68-327)": "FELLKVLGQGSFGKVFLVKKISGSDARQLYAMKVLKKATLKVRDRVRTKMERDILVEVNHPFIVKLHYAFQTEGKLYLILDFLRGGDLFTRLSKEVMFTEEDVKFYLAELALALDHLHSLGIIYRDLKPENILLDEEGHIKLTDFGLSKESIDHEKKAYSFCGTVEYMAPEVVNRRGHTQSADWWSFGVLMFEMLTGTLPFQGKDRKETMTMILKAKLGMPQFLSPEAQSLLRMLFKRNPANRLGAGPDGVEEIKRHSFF"}, "[2]": {"target": "ABL1(F317L)-nonphosphorylated (Homo sapiens (Human), UniProt P00519, F317L)"}, "[3]": {"target": "JAK2(JH1domain-catalytic) (Homo sapiens (Human), UniProt O60674)", "sequence (O60674 849-1124)": "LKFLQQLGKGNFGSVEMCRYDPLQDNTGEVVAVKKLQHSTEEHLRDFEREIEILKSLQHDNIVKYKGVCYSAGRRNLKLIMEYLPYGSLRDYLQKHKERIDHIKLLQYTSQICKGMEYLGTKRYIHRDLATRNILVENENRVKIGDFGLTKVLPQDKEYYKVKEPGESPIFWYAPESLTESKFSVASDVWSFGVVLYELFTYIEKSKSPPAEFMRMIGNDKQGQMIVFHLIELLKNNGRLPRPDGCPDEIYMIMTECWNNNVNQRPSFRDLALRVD"}, "RIPK5": {"target": "RIPK5 (Homo sapiens (Human), UniProt Q6XUX3)"}, "ERN1": {"target": "ERN1 (Homo sapiens (Human), UniProt O75460)", "sequence (O75460 19-977)": "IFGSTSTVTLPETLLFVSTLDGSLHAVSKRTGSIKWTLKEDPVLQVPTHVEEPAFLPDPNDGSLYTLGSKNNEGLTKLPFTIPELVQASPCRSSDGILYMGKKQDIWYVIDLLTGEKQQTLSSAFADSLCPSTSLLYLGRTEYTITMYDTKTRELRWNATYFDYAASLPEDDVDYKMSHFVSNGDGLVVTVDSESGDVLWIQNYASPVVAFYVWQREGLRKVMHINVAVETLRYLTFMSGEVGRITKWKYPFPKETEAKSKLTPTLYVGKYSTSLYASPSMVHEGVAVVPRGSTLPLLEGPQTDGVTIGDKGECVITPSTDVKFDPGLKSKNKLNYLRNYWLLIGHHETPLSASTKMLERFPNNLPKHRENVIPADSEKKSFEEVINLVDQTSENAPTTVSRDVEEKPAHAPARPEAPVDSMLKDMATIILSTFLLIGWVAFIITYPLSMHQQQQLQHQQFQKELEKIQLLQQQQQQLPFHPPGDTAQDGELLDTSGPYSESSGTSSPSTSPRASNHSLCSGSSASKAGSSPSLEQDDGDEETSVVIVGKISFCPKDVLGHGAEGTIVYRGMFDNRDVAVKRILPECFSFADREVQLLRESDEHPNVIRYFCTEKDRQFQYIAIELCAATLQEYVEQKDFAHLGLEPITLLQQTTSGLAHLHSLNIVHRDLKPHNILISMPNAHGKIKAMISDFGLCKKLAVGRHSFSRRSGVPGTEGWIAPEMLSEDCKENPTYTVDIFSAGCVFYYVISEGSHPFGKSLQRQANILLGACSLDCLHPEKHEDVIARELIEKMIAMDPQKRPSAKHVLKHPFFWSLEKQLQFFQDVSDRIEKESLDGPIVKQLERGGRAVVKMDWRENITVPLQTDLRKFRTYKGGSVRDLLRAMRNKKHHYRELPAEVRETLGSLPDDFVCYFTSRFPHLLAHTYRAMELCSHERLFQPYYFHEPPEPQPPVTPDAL"}, "CSK": {"target": "CSK (Homo sapiens (Human), UniProt P41240)", "sequence (P41240 whole entry)": "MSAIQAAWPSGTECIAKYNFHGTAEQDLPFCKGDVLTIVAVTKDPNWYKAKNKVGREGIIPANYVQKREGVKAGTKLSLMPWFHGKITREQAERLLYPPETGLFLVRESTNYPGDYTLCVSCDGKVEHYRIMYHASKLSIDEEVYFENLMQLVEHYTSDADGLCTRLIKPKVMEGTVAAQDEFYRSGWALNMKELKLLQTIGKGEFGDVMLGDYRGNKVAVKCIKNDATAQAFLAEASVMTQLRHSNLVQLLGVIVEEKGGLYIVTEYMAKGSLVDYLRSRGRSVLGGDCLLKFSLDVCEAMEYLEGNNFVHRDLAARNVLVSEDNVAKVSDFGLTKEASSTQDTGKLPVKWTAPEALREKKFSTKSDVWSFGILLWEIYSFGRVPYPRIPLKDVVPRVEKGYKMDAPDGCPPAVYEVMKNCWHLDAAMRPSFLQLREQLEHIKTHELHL"}, "MAP4K4": {"target": "MAP4K4 (Homo sapiens (Human), UniProt O95819)"}, "[4]": {"target": "RSK1(Kin.Dom.2-C-terminal) (Homo sapiens (Human), UniProt Q15418)"}, "GRK7": {"target": "GRK7 (Homo sapiens (Human), UniProt Q8WTQ7)"}, "MST3": {"target": "MST3 (Homo sapiens (Human), UniProt Q9Y6E0)"}, "[5]": {"target": "RSK4(Kin.Dom.2-C-terminal) (Homo sapiens (Human), UniProt Q9UK32)", "sequence (Q9UK32 426-683)": "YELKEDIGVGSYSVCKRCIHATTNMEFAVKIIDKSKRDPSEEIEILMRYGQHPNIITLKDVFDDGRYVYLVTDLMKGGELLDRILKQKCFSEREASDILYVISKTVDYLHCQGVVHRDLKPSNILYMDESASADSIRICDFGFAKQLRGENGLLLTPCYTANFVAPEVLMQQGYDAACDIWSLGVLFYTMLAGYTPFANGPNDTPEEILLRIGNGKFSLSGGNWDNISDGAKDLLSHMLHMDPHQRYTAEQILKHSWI"}, "VRK2": {"target": "VRK2 (Homo sapiens (Human), UniProt Q86Y07)"}, "PIM3": {"target": "PIM3 (Homo sapiens (Human), UniProt Q86V86)"}, "CHEK1": {"target": "CHEK1 (Homo sapiens (Human), UniProt O14757)"}, "PRKCH": {"target": "PRKCH (Homo sapiens (Human), UniProt P24723)"}, "AURKA": {"target": "AURKA (Homo sapiens (Human), UniProt O14965)", "sequence (O14965 whole entry)": "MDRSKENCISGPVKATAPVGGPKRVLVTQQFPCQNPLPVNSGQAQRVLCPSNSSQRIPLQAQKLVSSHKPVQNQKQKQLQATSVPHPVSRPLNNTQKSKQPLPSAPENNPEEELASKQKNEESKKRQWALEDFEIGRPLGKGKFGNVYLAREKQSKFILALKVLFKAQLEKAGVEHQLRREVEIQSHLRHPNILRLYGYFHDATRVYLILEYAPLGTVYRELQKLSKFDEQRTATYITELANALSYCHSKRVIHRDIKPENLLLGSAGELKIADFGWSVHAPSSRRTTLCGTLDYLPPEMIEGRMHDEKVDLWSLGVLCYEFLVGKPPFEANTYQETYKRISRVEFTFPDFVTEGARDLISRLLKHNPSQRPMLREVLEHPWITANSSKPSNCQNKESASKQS"}, "EGFR(L747-T751del,Sins)": {"target": "EGFR(L747-T751del,Sins) (Homo sapiens (Human), UniProt P00533, DEL747-751/INS746S)", "sequence (P00533 other isoform, or with tags, fused parts or gaps del 1-668/ins S behind 746/del 747-751/del 1012-1210 limits assumed)": "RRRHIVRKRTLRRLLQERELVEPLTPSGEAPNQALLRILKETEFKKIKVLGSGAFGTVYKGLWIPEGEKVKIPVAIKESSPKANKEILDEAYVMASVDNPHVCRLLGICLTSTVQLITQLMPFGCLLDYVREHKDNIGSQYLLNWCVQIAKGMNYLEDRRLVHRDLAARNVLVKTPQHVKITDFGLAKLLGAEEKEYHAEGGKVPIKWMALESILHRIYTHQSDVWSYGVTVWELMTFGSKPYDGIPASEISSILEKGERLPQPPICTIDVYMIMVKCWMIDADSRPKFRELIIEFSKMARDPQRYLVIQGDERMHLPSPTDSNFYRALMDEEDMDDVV"}, "TSSK3": {"target": "TSSK3 (Homo sapiens (Human), UniProt Q96PN8)", "sequence (Q96PN8 whole entry)": "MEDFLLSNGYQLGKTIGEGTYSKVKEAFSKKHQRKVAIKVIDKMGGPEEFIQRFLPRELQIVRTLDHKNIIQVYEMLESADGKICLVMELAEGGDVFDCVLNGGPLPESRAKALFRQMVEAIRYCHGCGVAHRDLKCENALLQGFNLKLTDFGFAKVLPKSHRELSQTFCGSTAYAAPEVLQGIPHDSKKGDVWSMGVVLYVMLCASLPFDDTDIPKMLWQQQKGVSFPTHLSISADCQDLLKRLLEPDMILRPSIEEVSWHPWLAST"}, "PIP5K2C": {"target": "PIP5K2C (Homo sapiens (Human), UniProt Q8TBX8)", "sequence (Q8TBX8 whole entry)": "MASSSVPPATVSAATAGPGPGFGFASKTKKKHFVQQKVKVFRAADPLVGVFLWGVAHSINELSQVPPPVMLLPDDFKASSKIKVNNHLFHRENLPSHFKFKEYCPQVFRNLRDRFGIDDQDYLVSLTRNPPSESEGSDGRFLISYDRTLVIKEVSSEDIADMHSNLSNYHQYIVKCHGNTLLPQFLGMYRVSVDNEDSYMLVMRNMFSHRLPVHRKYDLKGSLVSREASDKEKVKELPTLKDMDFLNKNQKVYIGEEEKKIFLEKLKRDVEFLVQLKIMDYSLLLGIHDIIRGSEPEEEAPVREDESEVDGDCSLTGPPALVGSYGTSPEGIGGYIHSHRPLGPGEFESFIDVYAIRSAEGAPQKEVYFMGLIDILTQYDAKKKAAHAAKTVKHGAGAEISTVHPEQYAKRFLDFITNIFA"}, "PIM1": {"target": "PIM1 (Homo sapiens (Human), UniProt P11309)", "sequence (P11309 whole entry)": "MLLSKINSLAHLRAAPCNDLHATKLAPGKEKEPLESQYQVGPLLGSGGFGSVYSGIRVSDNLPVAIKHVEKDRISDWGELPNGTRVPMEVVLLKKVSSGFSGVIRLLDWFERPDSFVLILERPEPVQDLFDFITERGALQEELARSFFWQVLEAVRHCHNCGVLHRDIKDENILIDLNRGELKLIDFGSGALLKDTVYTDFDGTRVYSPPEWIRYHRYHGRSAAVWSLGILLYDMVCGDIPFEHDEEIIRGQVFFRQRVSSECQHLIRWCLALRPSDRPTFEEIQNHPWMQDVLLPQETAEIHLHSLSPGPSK"}, "NEK6": {"target": "NEK6 (Homo sapiens (Human), UniProt Q9HC98)"}, "MLK2": {"target": "MLK2 (Homo sapiens (Human), UniProt Q02779)", "sequence (Q02779 whole entry)": "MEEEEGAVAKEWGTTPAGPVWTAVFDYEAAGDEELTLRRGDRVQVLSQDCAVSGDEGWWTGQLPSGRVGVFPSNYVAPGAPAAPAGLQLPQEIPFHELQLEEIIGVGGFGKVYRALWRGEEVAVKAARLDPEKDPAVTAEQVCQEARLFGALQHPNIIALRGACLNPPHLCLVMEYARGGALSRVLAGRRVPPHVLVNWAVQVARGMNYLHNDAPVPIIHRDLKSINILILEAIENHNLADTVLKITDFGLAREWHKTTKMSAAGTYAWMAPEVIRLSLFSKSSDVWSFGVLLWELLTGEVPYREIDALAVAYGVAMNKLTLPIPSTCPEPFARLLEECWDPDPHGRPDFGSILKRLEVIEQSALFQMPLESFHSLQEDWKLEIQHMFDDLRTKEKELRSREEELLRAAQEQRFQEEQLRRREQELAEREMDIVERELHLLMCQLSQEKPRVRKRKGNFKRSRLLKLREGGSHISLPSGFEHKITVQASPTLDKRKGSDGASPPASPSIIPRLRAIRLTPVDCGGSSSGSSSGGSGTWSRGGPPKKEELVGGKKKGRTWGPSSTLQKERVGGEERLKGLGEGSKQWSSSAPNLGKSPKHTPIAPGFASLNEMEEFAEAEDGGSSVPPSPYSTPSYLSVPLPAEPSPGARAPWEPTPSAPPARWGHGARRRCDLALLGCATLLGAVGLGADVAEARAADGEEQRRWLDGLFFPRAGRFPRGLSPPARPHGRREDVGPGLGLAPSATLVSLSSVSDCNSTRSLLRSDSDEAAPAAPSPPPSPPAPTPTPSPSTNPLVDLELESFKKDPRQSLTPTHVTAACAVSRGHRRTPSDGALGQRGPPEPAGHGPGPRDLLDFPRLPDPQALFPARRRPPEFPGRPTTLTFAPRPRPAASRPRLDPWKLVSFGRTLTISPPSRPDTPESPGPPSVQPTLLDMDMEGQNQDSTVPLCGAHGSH"}, "CDKL1": {"target": "CDKL1 (Homo sapiens (Human), UniProt Q00532)"}, "MARK4": {"target": "MARK4 (Homo sapiens (Human), UniProt Q96L34)"}, "[6]": {"target": "ABL1(Q252H)-phosphorylated (Homo sapiens (Human), UniProt P00519, Q252H)"}, "DCAMKL1": {"target": "DCAMKL1 (Homo sapiens (Human), UniProt O15075)"}, "ERBB3": {"target": "ERBB3 (Homo sapiens (Human), UniProt P21860)"}},
  "note": "Where two headings read alike, the source gives them in different places.",
  "data": [
    {"smiles": "CN(C[C@@H](O)Cc1ccccc1)C(=O)c1cncc(C#Cc2cnn(C(F)F)c2)c1", "note": "[Example 2, (S)-5-((1-(difluoromethyl)-1H-pyrazol-4-yl)ethynyl)-N-(2-hydroxy-3-phenylpropyl)-N-methylnicotinamide]", "values": [
      {"measurement": "remaining activity at 0.1 µM", "setting": "DAPK1; DAPK1", "value": 100, "unit": "%"},
      {"measurement": "remaining activity at 0.1 µM", "setting": "[1]; RSK2(Kin.Dom.1-N-terminal)", "value": 100, "unit": "%"},
      {"measurement": "remaining activity at 0.1 µM", "setting": "[2]; ABL1(F317L)-nonphosphorylated", "value": 100, "unit": "%"},
      {"measurement": "remaining activity at 0.1 µM", "setting": "[3]; JAK2(JH1domain-catalytic)", "value": 100, "unit": "%"},
      {"measurement": "remaining activity at 0.1 µM", "setting": "RIPK5; RIPK5", "value": 100, "unit": "%"},
      {"measurement": "remaining activity at 0.1 µM", "setting": "ERN1; ERN1", "value": 100, "unit": "%"},
      {"measurement": "remaining activity at 0.1 µM", "setting": "CSK; CSK", "value": 98, "unit": "%"},
      {"measurement": "remaining activity at 0.1 µM", "setting": "MAP4K4; MAP4K4", "value": 92, "unit": "%"},
      {"measurement": "remaining activity at 0.1 µM", "setting": "[4]; RSK1(Kin.Dom.2-C-terminal)", "value": 100, "unit": "%"},
      {"measurement": "remaining activity at 0.1 µM", "setting": "GRK7; GRK7", "value": 100, "unit": "%"},
      {"measurement": "remaining activity at 0.1 µM", "setting": "MST3; MST3", "value": 100, "unit": "%"},
      {"measurement": "remaining activity at 0.1 µM", "setting": "[5]; RSK4(Kin.Dom.2-C-terminal)", "value": 100, "unit": "%"},
      {"measurement": "remaining activity at 0.1 µM", "setting": "VRK2; VRK2", "value": 91, "unit": "%"},
      {"measurement": "remaining activity at 0.1 µM", "setting": "PIM3; PIM3", "value": 100, "unit": "%"},
      {"measurement": "remaining activity at 0.1 µM", "setting": "CHEK1; CHEK1", "value": 100, "unit": "%"},
      {"measurement": "remaining activity at 0.1 µM", "setting": "PRKCH; PRKCH", "value": 100, "unit": "%"},
      {"measurement": "remaining activity at 0.1 µM", "setting": "AURKA; AURKA", "value": 100, "unit": "%"},
      {"measurement": "remaining activity at 0.1 µM", "setting": "EGFR(L747-T751del,Sins); EGFR(L747-T751del,Sins)", "value": 100, "unit": "%"},
      {"measurement": "remaining activity at 0.1 µM", "setting": "TSSK3; TSSK3", "value": 82, "unit": "%"},
      {"measurement": "remaining activity at 0.1 µM", "setting": "PIP5K2C; PIP5K2C", "value": 63, "unit": "%"},
      {"measurement": "remaining activity at 0.1 µM", "setting": "PIM1; PIM1", "value": 98, "unit": "%"},
      {"measurement": "remaining activity at 0.1 µM", "setting": "NEK6; NEK6", "value": 100, "unit": "%"},
      {"measurement": "remaining activity at 0.1 µM", "setting": "MLK2; MLK2", "value": 66, "unit": "%"},
      {"measurement": "remaining activity at 0.1 µM", "setting": "CDKL1; CDKL1", "value": 100, "unit": "%"},
      {"measurement": "remaining activity at 0.1 µM", "setting": "MARK4; MARK4", "value": 91, "unit": "%"},
      {"measurement": "remaining activity at 0.1 µM", "setting": "[6]; ABL1(Q252H)-phosphorylated", "value": 99, "unit": "%"},
      {"measurement": "remaining activity at 0.1 µM", "setting": "DCAMKL1; DCAMKL1", "value": 100, "unit": "%"},
      {"measurement": "remaining activity at 0.1 µM", "setting": "ERBB3; ERBB3", "value": 100, "unit": "%"}
    ]},
    {"smiles": "CN(C[C@H](Cc1ccccc1)OP(=O)(O)O)C(=O)c1cncc(C#Cc2cnn(C(F)F)c2)c1", "note": "[Example 19, (S)-1-(5-((1-(difluoromethyl)-1H-pyrazol-4-yl)ethynyl)-N-methylnicotinamido)-3-phenylpropan-2-yl dihydrogen phosphate]", "values": [
      {"measurement": "remaining activity at 0.1 µM", "setting": "DAPK1", "value": 100, "unit": "%"},
      {"measurement": "remaining activity at 0.1 µM", "setting": "[1]", "value": 94, "unit": "%"},
      {"measurement": "remaining activity at 0.1 µM", "setting": "[2]", "value": 100, "unit": "%"},
      {"measurement": "remaining activity at 0.1 µM", "setting": "[3]", "value": 100, "unit": "%"},
      {"measurement": "remaining activity at 0.1 µM", "setting": "RIPK5", "value": 96, "unit": "%"},
      {"measurement": "remaining activity at 0.1 µM", "setting": "ERN1", "value": 93, "unit": "%"},
      {"measurement": "remaining activity at 0.1 µM", "setting": "CSK", "value": 93, "unit": "%"},
      {"measurement": "remaining activity at 0.1 µM", "setting": "MAP4K4", "value": 95, "unit": "%"},
      {"measurement": "remaining activity at 0.1 µM", "setting": "[4]", "value": 100, "unit": "%"},
      {"measurement": "remaining activity at 0.1 µM", "setting": "GRK7", "value": 100, "unit": "%"},
      {"measurement": "remaining activity at 0.1 µM", "setting": "MST3", "value": 100, "unit": "%"},
      {"measurement": "remaining activity at 0.1 µM", "setting": "[5]", "value": 100, "unit": "%"},
      {"measurement": "remaining activity at 0.1 µM", "setting": "VRK2", "value": 95, "unit": "%"},
      {"measurement": "remaining activity at 0.1 µM", "setting": "PIM3", "value": 100, "unit": "%"},
      {"measurement": "remaining activity at 0.1 µM", "setting": "CHEK1", "value": 100, "unit": "%"},
      {"measurement": "remaining activity at 0.1 µM", "setting": "PRKCH", "value": 91, "unit": "%"},
      {"measurement": "remaining activity at 0.1 µM", "setting": "AURKA", "value": 100, "unit": "%"},
      {"measurement": "remaining activity at 0.1 µM", "setting": "EGFR(L747-T751del,Sins)", "value": 79, "unit": "%"},
      {"measurement": "remaining activity at 0.1 µM", "setting": "TSSK3", "value": 100, "unit": "%"},
      {"measurement": "remaining activity at 0.1 µM", "setting": "PIP5K2C", "value": 74, "unit": "%"},
      {"measurement": "remaining activity at 0.1 µM", "setting": "PIM1", "value": 100, "unit": "%"},
      {"measurement": "remaining activity at 0.1 µM", "setting": "NEK6", "value": 100, "unit": "%"},
      {"measurement": "remaining activity at 0.1 µM", "setting": "MLK2", "value": 69, "unit": "%"},
      {"measurement": "remaining activity at 0.1 µM", "setting": "CDKL1", "value": 100, "unit": "%"},
      {"measurement": "remaining activity at 0.1 µM", "setting": "MARK4", "value": 94, "unit": "%"},
      {"measurement": "remaining activity at 0.1 µM", "setting": "[6]", "value": 99, "unit": "%"},
      {"measurement": "remaining activity at 0.1 µM", "setting": "DCAMKL1", "value": 100, "unit": "%"},
      {"measurement": "remaining activity at 0.1 µM", "setting": "ERBB3", "value": 100, "unit": "%"}
    ]}
  ]
}
